In patent US20060100264A1, “3,3'-Diindolylmethane immune activating compositions” (priority 2004, published 2006):

What was measured:
[1] = test system: HLA-A, HLA-B, HLA-C, β-microtubulin, TAP1 and TAP2; test: RT-PCR of MHC-I components and transporters in MCF-7 cells; format: cell-based, human
Text: RT-PCR was used to examine the expression of the four major components of human MHC-I, including HLA-A, HLA-B, HLA-C, and β-microtubulin, as well as two important associated transporters, TAP1 and TAP2. […] As expected, the expressions of these genes were increased 2-8 fold by treatment with IFNγ.

[2] = test system: IFNγ receptor (IFNGR1); test: IFNGR1 mRNA expression in DIM-treated MCF-7 cells (cDNA microarray, Northern blot, quantitative RT-PCR); format: cell-based, human
Method: (§1) Immune response activating effects of the DIM analogs are examined with cell-based assays for cytokine and cytokine receptor expression. […] We also used a sensitive sandwich ELISA assay to examine levels of IFNγ in medium from confluent cultures of MCF-7 cells that were treated for up to 3 days. DIM derivatives confirmed to have immune response activating activity in our reporter and ELISA assays are subsequently screened in a whole animal cytokine production and Y. enterocolitica infection studies, as described below in Examples VIII and IX.
(§2) An initial cDNA gene expression microarray screen of human breast cancer MCF-7 cells treated with DIM, followed by confirmation of results using Northern blots and quantitative RT-PCR, established the transcriptional activation of IFNγ, IFNγ receptor (IFNGR1), oligoadenylate-synthase (OAS) family member protein 69 (p69-OAS), and interferon-inducible protein 56 (p56), a protein closely related to OAS. […] Maximum induction for IFNγ, IFNGR1, p69-OAS and p56 were 4.6, 3.8, 3.2 and 4.0 fold, respectively.

[3] = test system: IL-12; test: Serum IL-12 by ELISA in mice after DIM; format: in vivo; settings: 30 μg/kg DIM orally
Method: (§3) We firstly investigated the effect of unsubstituted DIM on the production of IL-6, G-CSF, IL-12, TNF-α and IFNγ. A groups of 3 mice was given 30 μg/kg of unsubstituted DIM orally and then sacrificed at 1, 3, 5, 8, and 24 h after drug challenge. Serum was collected, pooled, and assayed for IL-6, G-CSF, IL-12 and TNF-α by ELISA. […] DIM produced an increase in circulating levels of G-CSF and TNF-α with the 3 h time point being maximal. […] DIM also stimulated IL-12 and kinetics were slightly different since the increased levels were sustained for at least 24 h.

[4] = test system: IL-6, G-CSF, IL-12, TNF-α and IFNγ; test: Serum levels of cytokines in mice; format: in vivo
[5] = test system: DMBA-induced mammary tumorigenesis; settings: repeated oral administrations during promotion stage, rodents; cited from earlier work
[6] = test system: IL-6; test: Serum IL-6 by ELISA in mice after DIM; format: in vivo; settings: 30 μg/kg DIM orally
Method: as §3

[7] = test system: MHC-I complex; test: Flow cytometry of cell surface MHC-I expression (FITC-conjugated HLA-ABC antibody); format: cell-based, human; settings: no IFNγ
Method: Induced expression of the MHC-I complex is a well-established and important down-stream target of IFNγ-mediated signal transduction. To examine further the possible synergistic effects of DIM on a significant metabolic product of IFNγ signaling, we tested the effects of co-treatment with DIM on IFNγ induced expression of MHC-I complex in MCF-7 cells.
Flow cytometry analysis of cell surface MHC-I expression was conducted using FITC-conjugated HLA-ABC antibody. In an initial control experiment, cultured MCF-7 cells were pre-treated with 30 μM DIM for 48 hours and then with or without 10 ng/mL IFNγ for another 16 hours. […] In a subsequent experiment in which cells were treated with a range of IFNγ concentrations and analyzed with the anti-MHC-I antibody, a strong signal indicative of IFNγ-induced MHC-I expression was detectable at 0.1 ng/mL and appeared to plateau at 10 ng/mL. In cells treated with vehicle control only, MHC-I expression was not detected in greater than 99% of cells.
Exposure to DIM of cells treated with 10 ng/mL of IFNγ, about 95% of which expressed MHC-I, produced a strong time dependent increase in MFV from 76.04 to 131.41. […] As expected, addition of an IFNγ blocking antibody into the medium before the treatments abrogated the inducing effects of co-treatments of IFNγ and DIM on MHC-I expression, confirming the requirement of the cytokine for the observed effects.

[8] = test system: OAS-Luc reporter (promoter and 5′-flanking region of p69-OAS); test: OAS-Luc luciferase reporter in transiently transfected MCF-7 cells; format: cell-based, human; settings: 24 h treatment
Method: In a further experiment to examine whether the inducing effects of DIM are at the transcriptional level, the effect of DIM on activities of two luciferase reporter constructs, OAS-Luc (12) and 4GAS-Luc (13) was examined. OAS-Luc contains the promoter and 5′-flanking region (−972) of p69-OAS and GAS-Luc contains four repeats of the consensus GAS element. MCF-7 cells transiently transfected with these reporter constructs were treated with IFNγ, DIM, or a combination of both for 24 h. […] IFNγ induced transcriptional activity of this reporter in a concentration dependent manner to a maximum of about 1.8 fold, which is less than the response of the endogenous gene of about 5.0 fold. In marked contrast to the maximum effects of combined treatments of the inducers on endogenous gene expression (nearly 12-fold increase compared to vehicle treated cells), the reporter gene construct responded with less than a 3-fold increase over the controls.

[9] = test system: IFNγ; test: Sandwich ELISA of IFNγ in medium from confluent MCF-7 cultures; format: cell-based, human; settings: vehicle control virtually undetectable
Method: as §1
Using a sensitive sandwich ELISA assay, we examined levels of IFNγ in medium from confluent cultures of MCF-7 cells that were treated with DIM for up to 3 days. […] Levels of IFNγ in the medium of cultured cells were increased following incubations for 1 and 3 days from virtually undetectable levels in the vehicle treated control to approximately 50±10 pg/mL and 80±30 pg/mL, respectively, for the indole treated cells.

[10] = test system: TNF-α; test: Serum TNF-α by ELISA in mice after DIM; format: in vivo; settings: 30 μg/kg DIM orally
Method: as §3

[11] = Estimated blood concentration of DIM from dietary broccoli; parameters: species or system human; settings: approximately 12 mg DIM from 200 g broccoli daily, maximum absorption assumed
Method: We observed the immune response activating activity of DIM at physiologically relevant concentrations. A person of average weight who consumes 200 g of broccoli daily will obtain approximately 12 mg of DIM. With maximum absorption of DIM, the blood concentration of DIM will reach approximately 10 μM. Therefore, in vivo concentrations of DIM from dietary Brassica vegetables represent the effective levels of DIM in vitro.

[12] = test system: oligoadenylate-synthase (OAS) family member protein 69 (p69-OAS); test: p69-OAS mRNA expression in MCF-7 cells (microarray, Northern blot, RT-PCR); format: cell-based, human
Method: as §1, §2

Q: Which “Expression levels of the six genes (MHC-I components, TAP1, TAP2) above vehicle/background” value [1] does the source give for `c1ccc2c(Cc3c[nH]c4ccccc34)c[nH]c2c1` [DIM, 3,3′-Diindolylmethane] here?
A: not significantly enhanced

Q: What about the “Maximum induction of IFNGR1 mRNA” value ([2]; MCF-7 cells treated with DIM) of the same compound?
A: 3.8 fold

Q: And the “Treatment time at which maximum IFNGR-1 induction was reached” value ([2]; MCF-7 cells treated with DIM)?
A: 48 h

Q: What about the “IFNGR1 mRNA level at 48 h of treatment” value ([2]; MCF-7 cells, 48 h) of the same compound?
A: remained elevated

Q: And the “Time for which increased IL-12 levels were sustained” value [3]?
A: at least 24 h

Q: And the “Cytokine production, including IFNγ” value ([4]; intravenous administration)?
A: elevated cytokine production

Q: What about the “Serum levels of cytokines” value ([4]; oral, 1-24 h after challenge) of the same compound?
A: stimulated a time-dependent increase in serum levels of cytokines

Q: And the “Inhibition of tumor growth” value [5]?
A: ≤ 95%

Q: And the “Time of peak IL-6 induction” value [6]?
A: 5 h

Q: What about the “Expression of the MHC-I complex, DIM treatment alone” value [7] of the same compound?
A: no significant effect

Q: What about the “Maximum induction of OAS-Luc reporter” value [8] of the same compound?
A: about 2.3 fold

Q: What about the “Level of IFNγ in the medium of cultured cells” value ([9]; MCF-7, incubation 1 day) of the same compound?
A: approximately 50±10 pg/mL

Q: And the “Level of IFNγ in the medium of cultured cells” value ([9]; MCF-7, incubation 3 days)?
A: ~80 ± 30 pg/mL

Q: And the “Time point of maximal circulating TNF-α” value [10]?
A: 3 h

Q: What about the “Blood concentration of DIM” value [11] of the same compound?
A: approximately 10 μM

Q: What about the “Maximum induction of p69-OAS mRNA” value ([12]; MCF-7 cells treated with DIM) of the same compound?
A: 3.2 fold

Q: And the “Treatment time at which p69-OAS expression was fully induced” value ([12]; MCF-7 cells treated with DIM)?
A: 6 h

Q: What about the “p69-OAS mRNA level at 48 h of treatment” value ([12]; MCF-7 cells, 48 h) of the same compound?
A: remained elevated
